Data reported in article PMC3025356, “Mechanism of the Ca^2+-Dependent Interaction between S100A4 and Tail Fragments of Nonmuscle Myosin Heavy Chain IIA” (Journal of Molecular Biology, 2011).
pKd: −log10 of the molar value. Read-outs that look alike come from different tables or passages of the source.

Legend:
S100A4 [1] = target: T1, S100A4 (Homo sapiens, UniProt P26447); experiment: Fluorescence anisotropy titration, F-M16^N binding to S100A4
T1 construct: We used full-length S100A4 for this analysis; made in house; host or cells: Escherichia coli BL21(DE3)
T1 sequence (P26447 whole entry): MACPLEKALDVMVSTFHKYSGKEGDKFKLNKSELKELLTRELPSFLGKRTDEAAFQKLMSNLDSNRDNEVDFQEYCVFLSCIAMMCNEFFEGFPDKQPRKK
Protocol: Titration (circles) was carried out in 20 mM NaCl, 10 mM Hepes, 1 mM Mg^2+, and 100 μM Ca^2+ at pH 7.5 and 20 °C. […] (squares).
Fluorescence spectra and anisotropy measurements were recorded using an SLM 8000 spectrofluorimeter (SLM, Urbana, IL). Fluorescein anisotropy measurements were carried out in L-format using a 515-nm emission filter. The four combinations of vertical and horizontal polarisers (vv, vh, hh, and hv) were each recorded for 30 s, and then the initial setting (vv) was re-read to check for signal stability. Calculations of the total fluorescence (Ivv + 2Ivh) and anisotropy (Ivv − Ivh/(Ivv + 2Ivh)), corrected for the g factor (hh/hv), were performed using an Excel spreadsheet. […] Note that the small correction for the emission intensity weighting to the observed anisotropy was not applied to these competitive titrations as the error will tend to cancel.

S100A4 [2] = target: T1, S100A4; experiment: Stopped-flow fluorescein fluorescence, kinetics of myosin peptide binding to S100A4; details: for dissociation rate constants, F-M16N vs M32: modelled
Protocol: (§1) Stopped-flow measurements were carried out using an SX18-MV apparatus (Applied Photophysics Ltd., Leatherhead, UK) with a dead time of 1.5 ms.[40] Records were generally captured on a logarithmic time base. Absorption (turbidity) measurements were usually recorded using a 10-mm pathlength, while fluorescence was recorded with a 2-mm pathlength for excitation and emission. The stated concentrations of components refer to the reaction chamber after mixing, unless otherwise indicated. Tyrosine fluorescence was excited at 280 nm, and the emission was collected through a UG11 bandpass filter plus a 305-nm longpass filter.[18] Fluorescein fluorescence was excited at 480 nm, and the emission was detected through a 515-nm longpass filter. Quin-2 fluorescence was measured by excitation at 336 nm, and emission was collected with a 455-nm longpass filter. For simultaneous recording of light scatter, a second channel was monitored through a UG11 filter. Rate constants were obtained by fitting to single-exponential or double-exponential functions using Kaleidagraph (Synergy Software) or Applied Photophysics Pro-Data software. Modeling of kinetic schemes was performed using Berkeley Madonna software.
The value of K5 (scheme 2) was estimated from two independent experiments. From the competition
(§2) A second estimate was calculated from the apparent Ca2+ binding constant observed in the turbidity assay […]
Fig. S2. (a) Displacement of 0.1
monitored by fluorescein emission intensity. […] (b)
Ca2+ was mixed with 1 mM EGTA. […] Note in these
stopped-flow measurements of fluorescein intensity, no polarising optics were present at the magic angle

S100A4 [3] = target: T1, S100A4; experiment: Summary of rate and equilibrium constants defined according to Scheme 1; assay type: binding; details: for k− 3: Ca^2+ dissociation from peptide–S100A4–Ca^2+; for k2: peptide association to S100A4–Ca^2+; for k− 2: peptide dissociation from S100A4–Ca^2+
From the text: The interaction of myosin tail fragments (M) with S100A4 depends on [Ca^2+], with little detectable binding in the absence of Ca^2+.[2,7,17] Scheme 1 presents a minimal pathway describing the thermodynamics and kinetics of this interaction, where arrow lengths indicate the approximate position of the equilibria involved.
[formula] Scheme 1 Ca2+ and myosin peptide (M) binding to S100A4.
The binding of Ca^2+ and a target peptide to S100A4, as shown in Scheme 1, is thermodynamically coupled so that K1K2 = K0K3. For simplicity, we assume a 1:1 stoichiometry and independent binding sites, which are unlikely to be true at least for the longer fragments. However, the trends in binding remain valid for more complex cases. Binding of target peptides to S100A4 in the absence of Ca^2+ is weak (K0 > 100 μM), while binding of target peptides to S100A4 in the presence of Ca^2+ (K2) is around a micromolar or less for longer fragments. Knowing that Ca^2+ binding to S100A4 has K1 = 2–5 μM (from the ITC data above and the literature[14,17,18]) requires that Ca^2+ binding to the M–S100A4 complex be very tight (K3 < 0.15 μM and even lower for M200). The latter cannot be easily determined directly as it requires protein concentrations greater than K0 (i.e., >>100 μM) so that the proteins remain bound together throughout the titration with Ca^2+. However, K3 is readily determined by calculation because values or limits for K0, K1, and K2 are available (Table 2). This aspect is addressed further below for M200, which has the complication of forming filaments at the ionic strength used.

S100A4 [4] = target: T1, S100A4; experiment: Quin-2 fluorescence, Ca^2+ dissociation from S100A4 in the presence of target peptides; assay type: binding
Protocol: Ca^2+ dissociation measurements for wild-type S100A4, using Quin-2 as described above, were repeated as a control for the effect of target peptides on this process. On mixing 10 μM S100A4 in the presence of Ca^2+ with 100 μM Quin-2, the observed profile was fitted to a single exponential with kobs = 17 s^− 1 (Fig. 5a; cf. k− 1 in Scheme 1).
Fig. 5 Dissociation of Ca^2+ from S100A4 in the absence and in the presence of target peptides monitored using Quin-2 fluorescence. (a) Mixed with 100 μM Quin-2 was 10 μM S100A4 + 50 μM Ca^2+ (stopped-flow reaction chamber concentrations). A superposed fit to a single exponential yields kobs = 17 s^− 1. […] (d) As in (a), but with 2.5 μM M200 premixed with 5 μM S100A4. A biphasic exponential fit yielded rate constants of 13 s^− 1 (A = 26%) and 0.30 s^− 1 (A = 74%). […] Experiments were carried out in either 20 mM NaCl, 20 mM Tris, 1 mM DTT, and 100 μM Ca^2+ at pH 7.5 and 20 °C (a and b; cf. Malashkevich et al.[17]), or 100 mM NaCl, 10 mM Hepes, and 100 μM Ca^2+ at pH 7.5 and 20 °C (c and d). […] Rate constants were unaffected by the inclusion of 1 mM Mg^2+.
as §1, with “Rate constants were obtained by fitting to single-exponential or double-exponential functions using Kaleidagraph (Synergy Software) or Applied Photophysics Pro-Data software. Modeling of kinetic schemes was performed using Berkeley Madonna software.” left out

S100A4 [5] = target: T1, S100A4; experiment: Competition of M32/M16^N with M200 for S100A4 (turbidity); assay type: biochemical; details: 250 μM peptide, 5 μM M200, 10 μM S100A4, Ca^2+
Protocol: Fig. 9 Dissociation of M200 filaments by S100A4. (a) Initially, M200 was added (i) from a concentrated stock in 0.5 M NaCl to give a final concentration of 5 μM M200 (with respect to the polypeptide chain) in 100 mM NaCl, 10 mM Hepes, and 0.1 mM Ca^2+ at pH 7.5 and 20 °C. A biphasic rise in turbidity was recorded for 200 s (continuous line). Then 10 μM S100A4 (with respect to monomer concentration) was added (ii), followed by 0.2 mM EGTA (iii) and 1 mM Ca^2+ (iv). […] (b) M200 was diluted (i) into 100 mM NaCl to form filaments as in (a), then 5 μM S100A4 was added (ii), causing a 54% drop in turbidity. A further 5 μM S100A4 (iii) caused turbidity to fall to almost zero. (c) Stopped-flow records monitoring the dissociation of 5 μM M200 filaments on jumping [NaCl] from 100 mM to 120 mM NaCl. Other components of the buffer were 20 mM Hepes, 1 mM Mg^2+, and 100 μM Ca^2+ at pH 7.5 and 20 °C. […] In the presence of 20 μM S100A4 (lower trace), the turbidity decreased by 87% with a rate constant of 0.2 s^− 1.
Further information on Scheme 2 was obtained from competition assays. […] An independent estimate of K5 based on the Ca^2+ dependence of the turbidity assay yielded a value of 0.003 μM (see Supplementary Data).
The decrease in fluorescence, […]
that F-M16N binding was slightly faster. […]
as §2

S100A4 [6] = target: T1, S100A4; details: cited from earlier work
From the text: The site between helix III and helix IV of S100A4, exposed in the presence of Ca^2+, could accommodate an α-helical target of about 16 residues. The longer M32 mini ...

With `CSCC[C@H](NC(=O)[C@H](C)NC(=O)[C@H](CC(=O)O)NC(=O)CCCCCNC(=S)Nc1ccc2c(c1)C(=O)OC21c2ccc(O)cc2Oc2cc(O)ccc21)C(=O)N[C@@H](CC(N)=O)C(=O)N[C@@H](CCCNC(=N)N)C(=O)N[C@@H](CCC(=O)O)C(=O)N[C@H](C(=O)N[C@@H](CO)C(=O)N[C@@H](CO)C(=O)N[C@@H](CC(C)C)C(=O)N[C@@H](CCCCN)C(=O)N[C@@H](CC(N)=O)C(=O)N[C@@H](CCCCN)C(=O)N[C@@H](CC(C)C)C(=O)N[C@@H](CCCNC(=N)N)C(=O)N[C@@H](CCCNC(=N)N)C(N)=O)C(C)C` [F-M16^N] the “quench of total fluorescein fluorescence on binding” value (S100A4 [1]) was ~35%, the “displacement rate constant by excess M32” value (S100A4 [2]; 0.1 μM F-M16^N, 5 μM S100A4, 60 μM M32, Ca^2+) was 7.7 s^− 1 and the “kobs on mixing with EGTA (Ca^2+ dissociation from complex, k− 3)” value (S100A4 [2]; 0.1 μM F-M16^N, 10 μM S100A4, 50 μM Ca^2+, 1 mM EGTA) was 9.4 s^− 1. For the same compound, the kobs of binding (S100A4 [2]; 0.1 μM F-M16^N, 25 μM S100A4) was 138 s^− 1, the “calculated kobs via k− 2 and k− 1 route” value (S100A4 [2]; 10 μM S100A4) was 1.8 s^− 1 and the maximum kobs (S100A4 [2]; above 25 μM S100A4) was 150 s^− 1. For the same compound, the “association rate constant k2 relative to M32” value (S100A4 [2]; competition with equimolar M32, modelled) was “about twice as large as that of M32”, the fluorescence quench overshoot (S100A4 [2]; equimolar F-M16N and M32 mixed with equimolar S100A4) was 12% and the “amplitude of fluorescence decrease with competitor” value (S100A4 [2]; equimolar F-M16N and M32 with equimolar S100A4, relative to absence of M32) was “about half the amplitude observed in the absence of M32”. The “dissociation rate constants, F-M16N vs M32” value (S100A4 [2]) was “similar”, the kon (S100A4 [2]; read-out: association rate constant kon (k2)) was 4.9e+06 M⁻¹ s⁻¹ and the koff (S100A4 [2]; read-out: dissociation rate constant koff (k− 2)) was 6.2 s⁻¹. The “k3, Ca^2+ binding to preformed peptide–S100A4 complex” value (S100A4 [2]; thermodynamic balance of Scheme 1) was > 5 × 10^8 M^− 1 s^− 1, the k1 (S100A4 [3]; Ca^2+ association to free S100A4, common to all targets) was 3.2 μM^− 1 s^− 1 and the k3 (S100A4 [3]; Ca^2+ association to peptide–S100A4) was > 500 μM^− 1 s^− 1. The “k− 1” value (S100A4 [3]; Ca^2+ dissociation from free S100A4, common to all targets) was 16 s^− 1, the “k− 3” value (S100A4 [3]) was 9.4 s^− 1 and the k2 (S100A4 [3]) was 4.9 μM^− 1 s^− 1. For the same compound, the “k− 2” value (S100A4 [3]) was 6.2 s^− 1.

In the case of `CSCC[C@H](NC(=O)[C@H](C)NC(=O)[C@H](CC(=O)O)NC(=O)[C@H](C)NC(C)=O)C(=O)N[C@@H](CC(N)=O)C(=O)N[C@@H](CCCNC(=N)N)C(=O)N[C@@H](CCC(=O)O)C(=O)N[C@H](C(=O)N[C@@H](CO)C(=O)N[C@@H](CO)C(=O)N[C@@H](CC(C)C)C(=O)N[C@@H](CCCCN)C(=O)N[C@@H](CC(N)=O)C(=O)N[C@@H](CCCCN)C(=O)N[C@@H](CC(C)C)C(=O)N[C@@H](CCCNC(=N)N)C(=O)N[C@@H](CCCNC(=N)N)C(=O)NCC(=O)N[C@@H](CC(=O)O)C(=O)N[C@@H](CC(C)C)C(=O)N1CCC[C@H]1C(=O)N[C@@H](Cc1ccccc1)C(=O)N[C@H](C(=O)N[C@H](C(=O)N1CCC[C@H]1C(=O)N[C@@H](CCCNC(=N)N)C(=O)N[C@@H](CCCNC(=N)N)C(=O)N[C@@H](CCSC)C(=O)N[C@@H](C)C(=O)N[C@@H](CCCNC(=N)N)C(=O)N[C@@H](CCCCN)C(=O)NCC(N)=O)C(C)C)C(C)C)C(C)C` [M32], the “kobs, Ca^2+ dissociation with peptide” value (S100A4 [4]; 50 μM peptide premixed with 10 μM S100A4, 100 mM NaCl, 10 mM Hepes, 100 μM Ca^2+, pH 7.5, 20 °C) was 3.3 s^− 1, the “stoichiometry (discussion)” value (S100A4 [4]; S100A4 concentration from absorbance at 280 nm) was “one mol of M32 peptide binds to two S100A4 monomers” and the “dissociation rate constants, F-M16N vs M32” value (S100A4 [2]) was “similar”. For the same compound, the pKd (S100A4 [3]; Ca^2+ binding to peptide–S100A4, limit from K3 = K1K2/K0, read-out: K3) was > 6.82, the “k− 3” value (S100A4 [3]) was 3.2 s^− 1 and the k2 (S100A4 [3]) was “∼ 2 μM^− 1 s^− 1”. For the same compound, the pKd (S100A4 [3]; peptide binding to S100A4 without Ca^2+, read-out: K0) was < 4.00, the “k− 2” value (S100A4 [3]) was “∼ 6 s^− 1” and the “inhibition of turbidity change amplitude” value (S100A4 [5]) was 50%.

For “R1893-R1923 myosin fragment: R1893-R1923 myosin fragment of Malashkevich et al.”, the stoichiometry (S100A4 [6]) is given as ~0.5 mol of peptide per mole of S100A4 (dimer).
